Reference: US8633245B2, “PAI-1 inhibitor” (Institute of Medicinal Molecular Design, Inc., priority 2008, dated 2014)

Target: T1, recombinant human PAI-1 (Homo sapiens, UniProt P05121)
T1 construct: purchased Molecular Innovations, Inc
Assay: Test Example 1: human PAI-1 inhibitory activity (tPA fluorogenic substrate, pH 7.5 Tris buffer)
Assay type: biochemical
Details: Tris buffer
Method: 50 mM Tris, 150 mM NaCl, 10 μg/ml BSA, 0.01% Tween80 (SIGMA-ALDRICH Corporation)

T1 sequence (P05121 24-402): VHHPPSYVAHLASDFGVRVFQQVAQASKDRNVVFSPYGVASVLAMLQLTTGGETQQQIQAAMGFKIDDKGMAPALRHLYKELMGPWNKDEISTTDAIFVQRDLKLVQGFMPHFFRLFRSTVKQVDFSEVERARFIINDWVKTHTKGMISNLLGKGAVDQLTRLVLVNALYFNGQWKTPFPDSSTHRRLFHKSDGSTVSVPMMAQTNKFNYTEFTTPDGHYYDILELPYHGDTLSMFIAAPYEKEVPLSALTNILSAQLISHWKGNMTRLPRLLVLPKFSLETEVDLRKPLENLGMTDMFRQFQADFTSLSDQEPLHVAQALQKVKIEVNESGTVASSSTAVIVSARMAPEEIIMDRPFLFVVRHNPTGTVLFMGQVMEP

CC(C)(C)c1ccc(CN(C(=O)C(=O)O)c2ccc(-c3ccc(OC(F)(F)F)cc3)cc2C(F)(F)F)cc1 [Compound 150]
Inhibition Rate of PAI-1 Activity (%) (Compound Concentration 5 μM): 33%
Inhibition Rate of PAI-1 Activity (%) (Compound Concentration 10 μM): 75%
Inhibition Rate of PAI-1 Activity (%) (Compound Concentration 25 μM): 87%

O=C(O)CCc1cc(-c2ccc(OC(F)(F)F)cc2)ccc1OCc1ccc(F)cc1 [Compound 20]
Inhibition Rate of PAI-1 Activity (%) (Compound Concentration 10 μM): 10%
Inhibition Rate of PAI-1 Activity (%) (Compound Concentration 25 μM): 53%

Cc1cc(C)cc(COc2ccc(-c3ccc(OC(F)(F)F)cc3)cc2CCC(=O)O)c1 [Compound 59]
Inhibition Rate of PAI-1 Activity (%) (Compound Concentration 5 μM): 25%
Inhibition Rate of PAI-1 Activity (%) (Compound Concentration 10 μM): 53%
Inhibition Rate of PAI-1 Activity (%) (Compound Concentration 25 μM): 77%

CC(C)(C)c1ccc(-c2ccc(OCc3cccc(OC(F)(F)F)c3)c(CCC(=O)O)c2)cc1 [Compound 68]
Inhibition Rate of PAI-1 Activity (%) (Compound Concentration 5 μM): 40%
Inhibition Rate of PAI-1 Activity (%) (Compound Concentration 10 μM): 74%
Inhibition Rate of PAI-1 Activity (%) (Compound Concentration 25 μM): 95%

CSc1ccc(-c2ccc(OCc3ccc(C(C)(C)C)cc3)c(/C=C/C(=O)O)c2)cc1 [Compound 44]
Inhibition Rate of PAI-1 Activity (%) (Compound Concentration 5 μM): 16%
Inhibition Rate of PAI-1 Activity (%) (Compound Concentration 10 μM): 25%
Inhibition Rate of PAI-1 Activity (%) (Compound Concentration 25 μM): 21%

CC(C)(C)c1ccc(COc2ccc(OCc3ccc(OC(F)(F)F)cc3)cc2/C=C/C(=O)O)cc1 [Compound 413]
Inhibition Rate of PAI-1 Activity (%) (Compound Concentration 5 μM): 38%
Inhibition Rate of PAI-1 Activity (%) (Compound Concentration 10 μM): 66%
Inhibition Rate of PAI-1 Activity (%) (Compound Concentration 25 μM): 84%

O=C(O)C(=O)N(Cc1ccccc1)c1c(Cl)cc(-c2ccc(OC(F)(F)F)cc2)cc1Cl [Compound 180]
Inhibition Rate of PAI-1 Activity (%) (Compound Concentration 5 μM): 19%
Inhibition Rate of PAI-1 Activity (%) (Compound Concentration 10 μM): 36%
Inhibition Rate of PAI-1 Activity (%) (Compound Concentration 25 μM): 71%

CC(C)(C)c1ccc(CN(C(=O)C(=O)O)c2ccc(C(F)(F)F)cc2-c2ccc(OC(F)(F)F)cc2)cc1 [Compound 169]
Inhibition Rate of PAI-1 Activity (%) (Compound Concentration 5 μM): 59%
Inhibition Rate of PAI-1 Activity (%) (Compound Concentration 10 μM): 91%
Inhibition Rate of PAI-1 Activity (%) (Compound Concentration 25 μM): 84%

CC(C)(C)c1ccc(Oc2cccc(-c3ccc(OC(F)(F)F)cc3)c2C=CC(=O)O)cc1 [Compound 93]
Inhibition Rate of PAI-1 Activity (%) (Compound Concentration 5 μM): 51%
Inhibition Rate of PAI-1 Activity (%) (Compound Concentration 10 μM): 87%
Inhibition Rate of PAI-1 Activity (%) (Compound Concentration 25 μM): 94%

CC(C)(C)c1ccc(CN(C(=O)C(=O)O)c2ccc(-c3cccc([N+](=O)[O-])c3)cc2)cc1 [Compound 142]
Inhibition Rate of PAI-1 Activity (%) (Compound Concentration 10 μM): 3%
Inhibition Rate of PAI-1 Activity (%) (Compound Concentration 25 μM): 33%

O=C(O)C(=O)N(CCCc1ccccc1)c1ccc(-c2ccc(OC(F)(F)F)cc2)cc1 [Compound 224]
Inhibition Rate of PAI-1 Activity (%) (Compound Concentration 5 μM): 29%
Inhibition Rate of PAI-1 Activity (%) (Compound Concentration 10 μM): 63%
Inhibition Rate of PAI-1 Activity (%) (Compound Concentration 25 μM): 86%

CCCCc1ccc(COc2ccc(-c3ccc(C(C)(C)C)cc3)cc2CCC(=O)O)cc1 [Compound 71]
Inhibition Rate of PAI-1 Activity (%) (Compound Concentration 5 μM): 51%
Inhibition Rate of PAI-1 Activity (%) (Compound Concentration 10 μM): 80%
Inhibition Rate of PAI-1 Activity (%) (Compound Concentration 25 μM): 93%

CC(C)(C)c1ccc(COc2ccc(-c3ccccc3)cc2CCC(=O)O)cc1 [Compound 32]
Inhibition Rate of PAI-1 Activity (%) (Compound Concentration 5 μM): 22%
Inhibition Rate of PAI-1 Activity (%) (Compound Concentration 10 μM): 47%
Inhibition Rate of PAI-1 Activity (%) (Compound Concentration 25 μM): 97%

CC(C)(C)c1ccc(-c2ccc(Oc3ccc(-c4ccc(OC(F)(F)F)cc4)cc3/C=C/C(=O)O)c(CCC(=O)O)c2)cc1 [Compound 540]
Inhibition Rate of PAI-1 Activity (%) (Compound Concentration 5 μM): 75%
Inhibition Rate of PAI-1 Activity (%) (Compound Concentration 10 μM): 91%
Inhibition Rate of PAI-1 Activity (%) (Compound Concentration 25 μM): 91%

CC(C)(C)c1ccc(CN(C(=O)C(=O)O)c2ccc(-c3ccc(F)cc3)cc2)cc1 [Compound 127]
Inhibition Rate of PAI-1 Activity (%) (Compound Concentration 5 μM): 21%
Inhibition Rate of PAI-1 Activity (%) (Compound Concentration 10 μM): 43%

O=C(O)Cc1cc(-c2ccc(OC(F)(F)F)cc2)ccc1OCc1ccccc1 [Compound 1]
Inhibition Rate of PAI-1 Activity (%) (Compound Concentration 5 μM): 18%
Inhibition Rate of PAI-1 Activity (%) (Compound Concentration 10 μM): 31%

CC(C)(C)c1ccc(CN(C(=O)C(=O)O)c2ccc(Cl)c(OCc3ccc(OC(F)(F)F)cc3)c2)cc1 [Compound 629]
Inhibition Rate of PAI-1 Activity (%) (Compound Concentration 5 μM): 62%
Inhibition Rate of PAI-1 Activity (%) (Compound Concentration 10 μM): 92%
Inhibition Rate of PAI-1 Activity (%) (Compound Concentration 25 μM): 88%

CCCCCOc1ccc(-c2ccc(OC(F)(F)F)cc2)cc1N(CCCCCc1ccccc1)C(=O)C(=O)O [Compound 242]
Inhibition Rate of PAI-1 Activity (%) (Compound Concentration 5 μM): 88%
Inhibition Rate of PAI-1 Activity (%) (Compound Concentration 10 μM): 94%
